In paper PMC9049325 (ChemMedChem, 2020):
Where two headings read alike, the source gives them in different places.

How the values were obtained:
[1] = tested on: CB-5083 resistant p97 mutants; experiment: p97 ATPase activity assay, panel of CB-5083 resistant mutants; format: biochemical; conditions: among CB-5083 resistant mutants
WT p97 [2] = target: T1, WT p97 (Homo sapiens, UniProt P55072); experiment: p97 ATPase activity assay, WT; format: biochemical
A549 cells [3] = tested on: A549 cells
seven cancer lines = experiment: Cancer cell proliferation assay; format: cell-based; conditions: for IC50: read-out: IC50 for inhibition of proliferation
p97 ATPase = p97 ATPase (Homo sapiens, UniProt P55072); experiment: Steady-state kinetic analysis of p97 ATPase inhibition; format: biochemical; conditions: ten ATP concentrations, 2 or 3 inhibitor concentrations
p97 ATPase, sequence (P55072 whole entry): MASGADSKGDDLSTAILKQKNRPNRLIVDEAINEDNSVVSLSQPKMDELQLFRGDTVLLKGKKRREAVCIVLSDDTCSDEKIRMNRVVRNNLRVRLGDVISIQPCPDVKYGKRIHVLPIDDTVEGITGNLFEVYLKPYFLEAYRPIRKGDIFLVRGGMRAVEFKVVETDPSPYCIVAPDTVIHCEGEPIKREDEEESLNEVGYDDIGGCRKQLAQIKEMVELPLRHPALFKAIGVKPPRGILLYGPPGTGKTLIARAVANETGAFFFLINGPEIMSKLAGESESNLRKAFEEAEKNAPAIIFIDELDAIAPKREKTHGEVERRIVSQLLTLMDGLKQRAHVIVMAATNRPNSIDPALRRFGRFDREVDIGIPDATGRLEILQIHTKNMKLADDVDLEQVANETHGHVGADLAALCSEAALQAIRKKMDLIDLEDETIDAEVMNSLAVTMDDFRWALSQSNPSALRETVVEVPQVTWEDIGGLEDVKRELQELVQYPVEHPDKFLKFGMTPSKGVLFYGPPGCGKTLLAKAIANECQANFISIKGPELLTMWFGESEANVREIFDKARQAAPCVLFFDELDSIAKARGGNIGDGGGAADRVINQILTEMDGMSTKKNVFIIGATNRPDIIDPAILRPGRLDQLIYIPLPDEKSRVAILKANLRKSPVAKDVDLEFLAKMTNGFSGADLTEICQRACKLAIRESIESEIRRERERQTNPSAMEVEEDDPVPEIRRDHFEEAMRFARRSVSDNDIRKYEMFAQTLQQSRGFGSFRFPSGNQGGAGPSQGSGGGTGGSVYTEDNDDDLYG

[4] = tested on: CB-R-HCT116 cells (p97 D649A/T688A); experiment: Cell proliferation, CB-5083 resistant HCT116 versus parental HCT116; format: cell-based; conditions: for sensitivity of CB-R-HCT116 compared with parental HCT116: cell proliferation
WT p97 [5] = target: T1, WT p97; experiment: Thermal shift assay; format: binding; conditions: TSA, WT compared with N660K and T688A
p97 T688A mutant = p97 T688A mutant (Homo sapiens, UniProt P55072, T688A); experiment: p97 ATPase activity assay, T688A mutant; format: biochemical
p97 T688A mutant, sequence (P55072 whole entry T688A): as the sequence (P55072 whole entry) above, with T688A counted along it

[6] = target: p97 D649A/T688A double mutant; experiment: p97 ATPase activity assay, D649A/T688A double mutant; format: biochemical; conditions: protein concentration and reaction time each increased 4-fold
A549 cells [7] = experiment: Intracellular compound concentration determination
CB-R-HCT116 cells = experiment: Western blot of UPR / p97 inhibition biomarkers, CB-R-HCT116; format: cell-based; conditions: CB-R-HCT116, 10 μM, 6 hours
HCT116 cells = conditions: HCT116, 2.5 μM, 6 hours

T1 sequence (P55072 whole entry): as the sequence (P55072 whole entry) above

SMILES	mutants most resistant to inhibition [1]	mechanism of inhibition (p97 ATPase)	sensitivity of CB-R-HCT116 compared with parental HCT116 [4]	IC50 increase toward D649A/T688A vs WT p97 [6]	IC50 (seven cancer lines) [nM]	other results
c1ccc(CNc2nc(N3CCOc4ccccc43)nc3c2CCCC3)cc1 [ML241]	N660K and T688A are the most resistant	–	–	–	–	–
CC(C)N1CCN(CCNC2CCN(c3cccc(-c4cc5cc(F)ccc5[nH]4)c3)CC2)CC1 [UPCDC-30245]	–	noncompetitive inhibition	similarly sensitive	2 fold	–	fold less potent than NMS-873 in the ATPase activity assay (WT p97 [2]; WT p97): 12 fold; IC50 (WT p97 [2]; read-out: IC50 toward WT p97 ATPase activity, biochemical assay): 300 nM; intracellular concentration reached (A549 cells [3]): millimolar; time to steady-state intracellular concentration (A549 cells [3]): 3 h; potency at inhibiting cell proliferation compared with NMS-873 (seven cancer lines; HT29 cells): more potent; effect on Tm of WT, N660K and T688A p97 (WT p97 [5]): did not stabilize WT or either mutant p97 protein; fold resistance of T688A (IC50 increase vs WT) (p97 T688A mutant): 3 fold; intracellular concentration relative to NMS-873 (A549 cells [7]; 5 μM): 12 fold
Cc1cc2c(C(N)=O)cccc2n1-c1nc2c(c(NCc3ccccc3)n1)COCC2 [CB-5083]	N660K and T688A are the most resistant	–	unaffected	about 400 fold	500 to 4000	changes in biomarkers (K48 ubiquitination, ATF4, CHOP, p62) (CB-R-HCT116 cells): no effects on these biomarkers; inhibition of proliferation ([4]; CB-R-HCT116, 10.5 μM): only slightly inhibited; changes in biomarkers (K48 ubiquitination, ATF4, CHOP, p62) (HCT116 cells): accumulation of K48 ubiquitination, ATF4 and CHOP
Cc1cc(OCc2nnc(SC3CCCC3)n2-c2cccnc2)ccc1-c1ccc(S(C)(=O)=O)cc1 [NMS-873]	–	noncompetitive inhibitor	slightly more sensitive	–	500 to 4000	intracellular concentration reached (A549 cells [7]): millimolar
COc1cccc2c(NCc3ccccc3)nc(-n3c(N)nc4ccccc43)nc12 [ML240]	N660K and T688A are the most resistant	–	–	–	–	–
